Test results as given in patent US20230135152A1 (ACURASTEM INCORPORATED, priority 2020, published 2023).

What was measured:
PIKFYVE [1] = target: T1, PIKFYVE (Homo sapiens, UniProt Q9Y2I7); test: PIKFYVE assay (luciferase ADP-Glo kinase assay, Promega); assay type: biochemical; settings: Table 3
Procedure, shortened: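 ADP generated in the kinase reaction was detected by ADP-Glo luminescence (luciferase).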

PIKFYVE [2] = target: T1, PIKFYVE; test: Cell-based Pikfyve inhibition activity assay (EEA1 staining, mean vesicle size in BJ fibroblast cells); settings: Table 4, 4 hours treatment, 3 μM Apilimod = 100% inhibition
Procedure, shortened: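 BJ fibroblasts treated 4 h at 37° C with eleven 3-fold doses (0.03-3000 nM), then fixed and stained for EEA1. Confocal images (20×, 16 tiles/well) analysed for mean vesicle size. Normalised to 0.5% DMSO (0%) and 3 μM apilimod (100%); dose-response fitted with variable slope.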

T1 sequence (Q9Y2I7 whole entry): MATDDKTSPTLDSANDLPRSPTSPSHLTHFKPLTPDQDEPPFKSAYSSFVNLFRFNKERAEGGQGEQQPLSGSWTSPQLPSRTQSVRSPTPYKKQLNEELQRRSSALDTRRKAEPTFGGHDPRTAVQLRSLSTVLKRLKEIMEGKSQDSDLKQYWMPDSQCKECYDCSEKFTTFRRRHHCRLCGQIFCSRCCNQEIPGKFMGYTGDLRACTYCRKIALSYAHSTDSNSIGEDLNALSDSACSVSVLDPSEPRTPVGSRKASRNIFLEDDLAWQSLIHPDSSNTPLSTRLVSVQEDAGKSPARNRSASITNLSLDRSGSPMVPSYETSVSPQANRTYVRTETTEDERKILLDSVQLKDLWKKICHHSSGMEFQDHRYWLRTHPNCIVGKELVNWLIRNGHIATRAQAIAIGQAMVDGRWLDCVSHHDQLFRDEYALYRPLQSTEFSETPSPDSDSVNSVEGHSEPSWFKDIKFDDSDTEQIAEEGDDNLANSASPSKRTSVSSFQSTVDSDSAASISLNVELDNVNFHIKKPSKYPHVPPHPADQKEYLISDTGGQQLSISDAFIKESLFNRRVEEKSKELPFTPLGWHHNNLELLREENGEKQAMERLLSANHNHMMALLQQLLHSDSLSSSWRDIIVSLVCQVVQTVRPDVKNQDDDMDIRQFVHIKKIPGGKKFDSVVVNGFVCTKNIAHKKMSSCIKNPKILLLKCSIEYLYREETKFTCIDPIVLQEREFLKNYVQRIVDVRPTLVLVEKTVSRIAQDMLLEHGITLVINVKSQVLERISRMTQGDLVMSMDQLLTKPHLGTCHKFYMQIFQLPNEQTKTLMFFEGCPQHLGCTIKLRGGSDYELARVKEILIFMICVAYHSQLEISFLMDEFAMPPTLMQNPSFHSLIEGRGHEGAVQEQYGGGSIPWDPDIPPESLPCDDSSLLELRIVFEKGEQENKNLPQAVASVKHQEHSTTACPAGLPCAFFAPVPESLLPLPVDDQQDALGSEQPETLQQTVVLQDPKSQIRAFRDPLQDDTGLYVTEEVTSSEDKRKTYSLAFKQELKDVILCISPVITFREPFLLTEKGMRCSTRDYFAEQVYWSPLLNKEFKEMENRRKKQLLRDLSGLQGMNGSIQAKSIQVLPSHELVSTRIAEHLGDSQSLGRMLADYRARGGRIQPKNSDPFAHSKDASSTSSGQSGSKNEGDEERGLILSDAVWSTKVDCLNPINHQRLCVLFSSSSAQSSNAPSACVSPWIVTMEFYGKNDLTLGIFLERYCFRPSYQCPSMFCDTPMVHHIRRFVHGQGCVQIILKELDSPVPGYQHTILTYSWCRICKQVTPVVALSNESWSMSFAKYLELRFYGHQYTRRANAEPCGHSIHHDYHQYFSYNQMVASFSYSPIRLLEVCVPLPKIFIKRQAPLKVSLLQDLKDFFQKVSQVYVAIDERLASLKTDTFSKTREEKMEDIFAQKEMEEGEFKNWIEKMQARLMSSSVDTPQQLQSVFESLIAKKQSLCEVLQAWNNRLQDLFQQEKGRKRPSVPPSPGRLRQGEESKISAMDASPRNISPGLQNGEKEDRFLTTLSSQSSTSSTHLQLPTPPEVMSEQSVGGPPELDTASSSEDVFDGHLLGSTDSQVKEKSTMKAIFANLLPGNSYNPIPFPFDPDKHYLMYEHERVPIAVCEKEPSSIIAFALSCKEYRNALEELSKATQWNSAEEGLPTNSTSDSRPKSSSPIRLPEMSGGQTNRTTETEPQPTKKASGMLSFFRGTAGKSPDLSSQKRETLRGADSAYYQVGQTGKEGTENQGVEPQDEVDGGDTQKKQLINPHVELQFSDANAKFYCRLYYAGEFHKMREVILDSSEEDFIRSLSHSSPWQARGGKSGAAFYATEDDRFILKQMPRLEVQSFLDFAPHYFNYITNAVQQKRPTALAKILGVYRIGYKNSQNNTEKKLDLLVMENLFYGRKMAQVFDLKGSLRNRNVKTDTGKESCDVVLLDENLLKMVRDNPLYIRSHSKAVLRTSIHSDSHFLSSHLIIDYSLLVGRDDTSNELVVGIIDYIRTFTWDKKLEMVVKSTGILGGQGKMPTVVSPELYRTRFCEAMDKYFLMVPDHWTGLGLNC

Row | IC50 (PIKFYVE [1]) [nM] | EC50 (PIKFYVE [2]) [nM] | SMILES
1 | 10 to 100 | 100 to 500 | Cn1cc(CCOc2nc(N3CCOCC3)cc(-n3ccc(-c4c[nH]c5ccccc45)n3)n2)cn1 [Compound 203, 4-(6-(3-(1H-indol-3-yl)-1H-pyrazol-1-yl)-2-(2-(1-methyl-1H-pyrazol-4-yl)ethoxy)pyrimidin-4-yl)morpholine]
2 | < 3 | 100 to 500 | Cn1cc(CCOc2nc(N3CCOCC3)cc(-n3nc(O)cc3-c3ccccc3)n2)cn1 [Compound 211, 1-(2-(2-(1-methyl-1H-pyrazol-4-yl)ethoxy)-6-morpholinopyrimidin-4-yl)-5-phenyl-1H-pyrazol-3-ol]
3 | 3 to 10 | 500 to 5000 | Cn1cc(CCOc2nc(Oc3cc(-c4ccccc4)nn3C)cc(N3CCOCC3)n2)cn1 [Compound 212, 4-(2-(2-(1-methyl-1H-pyrazol-4-yl)ethoxy)-6-((1-methyl-3-phenyl-1H-pyrazol-5-yl)oxy)pyrimidin-4-yl)morpholine]
4 | 10 to 100 | 500 to 5000 | Cn1cc(CCOc2nc(Oc3cc(-c4ccccc4)[nH]n3)cc(N3CCOCC3)n2)cn1 [Compound 215, 4-(2-(2-(1-methyl-1H-pyrazol-4-yl)ethoxy)-6-((5-phenyl-1H-pyrazol-3-yl)oxy)pyrimidin-4-yl)morpholine]
5 | < 3 | 20 to 100 | Cn1cc(CCOc2nc(N3CCOCC3)cc(-n3nc(-c4ccccc4)cc3C3CC3)n2)cn1 [Compound 216, 4-(6-(5-cyclopropyl-3-phenyl-1H-pyrazol-1-yl)-2-(2-(1-methyl-1H-pyrazol-4-yl)ethoxy)pyrimidin-4-yl)morpholine]
6 | < 3 | 20 to 100 | COCc1cc(-c2ccccc2)nn1-c1cc(N2CCOCC2)nc(OCCc2cnn(C)c2)n1 [Compound 217, 4-(6-(5-(methoxymethyl)-3-phenyl-1H-pyrazol-1-yl)-2-(2-(1-methyl-1H-pyrazol-4-yl)ethoxy)pyrimidin-4-yl)morpholine]
7 | < 3 | 20 to 100 | CCc1cc(-c2ccccc2)nn1-c1cc(N2CCOCC2)nc(OCCc2cnn(C)c2)n1 [Compound 218, 4-(6-(5-ethyl-3-phenyl-1H-pyrazol-1-yl)-2-(2-(1-methyl-1H-pyrazol-4-yl)ethoxy)pyrimidin-4-yl)morpholine]
8 | < 3 | 20 to 100 | Cc1cccc(-c2cc(C)n(-c3cc(N4CCOCC4)nc(OCCc4cnn(C)c4)n3)n2)c1 [Compound 219, 4-(2-(2-(1-methyl-1H-pyrazol-4-yl)ethoxy)-6-(5-methyl-3-(m-tolyl)-1H-pyrazol-1-yl)pyrimidin-4-yl)morpholine]
9 | < 3 | < 20 | CN(C)CCc1cc(-c2ccccc2)nn1-c1cc(N2CCOCC2)nc(OCCc2cnn(C)c2)n1 [Compound 220, N,N-dimethyl-2-(1-(2-(2-(1-methyl-1H-pyrazol-4-yl)ethoxy)-6-morpholinopyrimidin-4-yl)-3-phenyl-1H-pyrazol-5-yl)ethan-1-amine]
10 | < 3 | 20 to 100 | CNCCc1cc(-c2ccccc2)nn1-c1cc(N2CCOCC2)nc(OCCc2cnn(C)c2)n1 [Compound 221, N-methyl-2-(1-(2-(2-(1-methyl-1H-pyrazol-4-yl)ethoxy)-6-morpholinopyrimidin-4-yl)-3-phenyl-1H-pyrazol-5-yl)ethan-1-amine]
11 | < 3 | 20 to 100 | Cn1cc(CCOc2nc(N3CCOCC3)cc(-n3nc(-c4ccccc4)cc3CO)n2)cn1 [Compound 233, (1-(2-(2-(1-methyl-1H-pyrazol-4-yl)ethoxy)-6-morpholinopyrimidin-4-yl)-3-phenyl-1H-pyrazol-5-yl)methanol]

The next lines start with the compound.

Row | SMILES | IC50 (PIKFYVE [1]) [nM] | EC50 (PIKFYVE [2]) [nM]
12 | CO[C@@H](CO)c1nc(N2CCOCC2)cc(-n2nc(-c3ccccc3)cc2C)n1 [Compound 204, (R)-2-methoxy-2-(4-(5-methyl-3-phenyl-1H-pyrazol-1-yl)-6-morpholinopyrimidin-2-yl)ethan-1-ol] | 10 to 100 | 500 to 5000
13 | Cc1cccc(-c2cc(CN(C)C)n(-c3cc(N4CCOCC4)nc(OCC4(C)COC4)n3)n2)c1 [Compound 206, N,N-dimethyl-1-(1-(2-((3-methyloxetan-3-yl)methoxy)-6-morpholinopyrimidin-4-yl)-3-(m-tolyl)-1H-pyrazol-5-yl)methanamine] | 3 to 10 | 500 to 5000
14 | Cc1cccc(-c2ccn(-c3cc(N4CCOCC4)nc(NCCO)n3)n2)c1 [Compound 208, 2-((4-morpholino-6-(3-(m-tolyl)-1H-pyrazol-1-yl)pyrimidin-2-yl)amino)ethan-1-ol] | 3 to 10 | 20 to 100
15 | Cc1cccc(-c2ccn(-c3cc(N4CCOCC4)nc(OCCN)n3)n2)c1 [Compound 209, 2-((4-morpholino-6-(3-(m-tolyl)-1H-pyrazol-1-yl)pyrimidin-2-yl)oxy)ethan-1-amine] | 10 to 100 | 100 to 500
16 | Cc1cccc(-c2ccn(-c3cc(N4CCOCC4)nc(OCCc4cn[nH]c4)n3)n2)c1 [Compound 214, 4-(2-(2-(1H-pyrazol-4-yl)ethoxy)-6-(3-(m-tolyl)-1H-pyrazol-1-yl)pyrimidin-4-yl)morpholine] | < 3 | < 20
17 | Cc1cccc(-c2ccn(-c3cc(N4CCOCC4)nc(CCc4cnn(C)c4)n3)n2)c1 [Compound 223, 4-(2-(2-(1-methyl-1H-pyrazol-4-yl)ethyl)-6-(3-(m-tolyl)-1H-pyrazol-1-yl)pyrimidin-4-yl)morpholine] | < 3 | 100 to 500
18 | CO[C@H](CO)c1nc(N2CCOCC2)cc(-n2nc(-c3cccc(C)c3)cc2C)n1 [Compound 225, (S)-2-methoxy-2-(4-(5-methyl-3-(m-tolyl)-1H-pyrazol-1-yl)-6-morpholinopyrimidin-2-yl)ethan-1-ol] | 3 to 10 | 100 to 500
19 | COC(C)(CO)c1nc(N2CCOCC2)cc(-n2ccc(-c3cccc(C)c3)n2)n1 (centres unmarked) [Compound 226, 2-methoxy-2-(4-morpholino-6-(3-(m-tolyl)-1H-pyrazol-1-yl)pyrimidin-2-yl)propan-1-ol] | 3 to 10 | 500 to 5000
20 | COC(C)(CO)c1nc(N2CCOCC2)cc(-n2ccc(-c3cccc(C)c3)n2)n1 (centres unmarked) [Compound 227, 2-methoxy-2-(4-morpholino-6-(3-(m-tolyl)-1H-pyrazol-1-yl)pyrimidin-2-yl)propan-1-ol] | < 3 | 100 to 500
21 | COC(CO)(c1ccccc1)c1nc(N2CCOCC2)cc(-n2ccc(-c3cccc(C)c3)n2)n1 (centres unmarked) [Compound 228, 2-methoxy-2-(4-morpholino-6-(3-(m-tolyl)-1H-pyrazol-1-yl)pyrimidin-2-yl)-2-phenylethan-1-ol] | < 3 | 100 to 500
22 | COC(CO)(c1ccccc1)c1nc(N2CCOCC2)cc(-n2ccc(-c3cccc(C)c3)n2)n1 (centres unmarked) [Compound 229, 2-methoxy-2-(4-morpholino-6-(3-(m-tolyl)-1H-pyrazol-1-yl)pyrimidin-2-yl)-2-phenylethan-1-ol] | 3 to 10 | 100 to 500
23 | Cc1cccc(-c2ccn(-c3cc(N4CCOCC4)nc(C#CC(O)c4cnn(C)c4)n3)n2)c1 (centres unmarked) [Compound 230, 1-(1-methyl-1H-pyrazol-4-yl)-3-(4-morpholino-6-(3-(m-tolyl)-1H-pyrazol-1-yl)pyrimidin-2-yl)prop-2-yn-1-ol] | < 3 | 20 to 100
24 | Cc1cccc(-c2ccn(-c3cc(N4CCOCC4)nc(CCC(O)c4cnn(C)c4)n3)n2)c1 (centres unmarked) [Compound 231, 1-(1-methyl-1H-pyrazol-4-yl)-3-(4-morpholino-6-(3-(m-tolyl)-1H-pyrazol-1-yl)pyrimidin-2-yl)propan-1-ol] | < 3 | 20 to 100
25 | Cn1cc(CCOc2nc(N3CCOCC3)cc(-n3ccc(-c4cn(C)c5ccccc45)n3)n2)cn1 [Compound 232, 4-(6-(3-(1-methyl-1H-indol-3-yl)-1H-pyrazol-1-yl)-2-(2-(1-methyl-1H-pyrazol-4-yl)ethoxy)pyrimidin-4-yl)morpholine] | 100 to 5000 | > 5000
26 | Cc1cccc(-c2cc(CO)n(-c3cc(N4CCOCC4)nc(OCCc4cnn(C)c4)n3)n2)c1 [Compound 234, (1-(2-(2-(1-methyl-1H-pyrazol-4-yl)ethoxy)-6-morpholinopyrimidin-4-yl)-3-(m-tolyl)-1H-pyrazol-5-yl)methanol] | < 3 | < 20
27 | Cc1cccc(-c2cc(CN3CCOCC3)n(-c3cc(N4CCOCC4)nc(OCCc4cnn(C)c4)n3)n2)c1 [Compound 235, 4-(2-(2-(1-methyl-1H-pyrazol-4-yl)ethoxy)-6-(5-(morpholinomethyl)-3-(m-tolyl)-1H-pyrazol-1-yl)pyrimidin-4-yl)morpholine] | < 3 | 20 to 100
28 | COc1nc(N2CCOCC2)cc(-n2nc(-c3cccc(C)c3)cc2CN2CCOCC2)n1 [Compound 236, 4-(2-methoxy-6-(5-(morpholinomethyl)-3-(m-tolyl)-1H-pyrazol-1-yl)pyrimidin-4-yl)morpholine] | < 3 | > 5000
29 | Cc1cccc(-c2cc(N3CCOCC3)n(-c3cc(N4CCOCC4)nc(OCCc4cnn(C)c4)n3)n2)c1 [Compound 237, 4-(2-(2-(1-methyl-1H-pyrazol-4-yl)ethoxy)-6-(5-morpholino-3-(m-tolyl)-1H-pyrazol-1-yl)pyrimidin-4-yl)morpholine] | < 3 | < 20
30 | Cc1cccc(-c2ccn(-c3cc(N4CCOCC4)nc(OCc4ccn(CCN(C)C)n4)n3)n2)c1 [Compound 238, N,N-dimethyl-2-(3-(((4-morpholino-6-(3-(m-tolyl)-1H-pyrazol-1-yl)pyrimidin-2-yl)oxy)methyl)-1H-pyrazol-1-yl)ethan-1-amine] | < 3 | 100 to 500
31 | Cc1cccc(-c2ccn(-c3cc(N4CCOCC4)c4[nH]ccc4n3)n2)c1 [Compound 241, 4-(5-(3-(m-tolyl)-1H-pyrazol-1-yl)-1H-pyrrolo[3,2-b]pyridin-7-yl)morpholine] | 3 to 10 | 500 to 5000
